Source: publication PMC12648092 (Acta Pharmaceutica Sinica. B, 2025)

These compounds were tested against AChE (Homo sapiens, UniProt P22303) (assay: ROCMCBs).
Sequence of AChE (P22303 32-617 isoform P22303-2 limits assumed): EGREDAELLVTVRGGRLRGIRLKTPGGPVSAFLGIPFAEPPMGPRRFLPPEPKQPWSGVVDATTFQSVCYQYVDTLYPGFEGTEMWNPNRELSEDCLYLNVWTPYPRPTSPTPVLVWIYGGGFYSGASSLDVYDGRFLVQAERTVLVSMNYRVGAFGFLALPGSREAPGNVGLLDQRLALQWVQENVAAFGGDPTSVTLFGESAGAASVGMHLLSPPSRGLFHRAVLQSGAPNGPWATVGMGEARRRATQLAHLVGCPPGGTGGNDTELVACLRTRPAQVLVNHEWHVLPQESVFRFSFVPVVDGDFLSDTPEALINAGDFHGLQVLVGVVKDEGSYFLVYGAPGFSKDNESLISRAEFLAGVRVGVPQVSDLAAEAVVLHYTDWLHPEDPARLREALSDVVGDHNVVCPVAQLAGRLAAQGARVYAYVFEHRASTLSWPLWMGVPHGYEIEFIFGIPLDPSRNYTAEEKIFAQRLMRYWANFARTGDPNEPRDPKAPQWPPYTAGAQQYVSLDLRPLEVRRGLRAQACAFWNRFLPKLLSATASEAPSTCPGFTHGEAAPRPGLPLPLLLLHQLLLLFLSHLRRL

Q: With `O=C(O)[C@H]1O[C@@H](Oc2cc3oc(-c4ccccc4)cc(=O)c3c(O)c2O)[C@H](O)[C@@H](O)[C@@H]1O` [baicalin] as the compound, how does the IC50 read?
A: Its IC50 is 12.2 µM.

Q: `OCc1ccc(O[C@@H]2O[C@H](CO)[C@@H](O)[C@H](O)[C@H]2O)cc1` [gastrodin] was tested. Which IC50 did it give?
A: Its IC50 is 3.2 µM.

Q: With `COC(=O)C1=CO[C@@H](O[C@@H]2O[C@H](CO)[C@@H](O)[C@H](O)[C@H]2O)[C@@H]2C(CO)=CC[C@H]12` [geniposide] as the compound, how does the IC50 read?
A: Its IC50 is 8.3 µM.

Q: How did the IC50 turn out when `CC[C@H]1CN2CC[C@]3(C(=O)Nc4ccccc43)[C@@H]2C[C@@H]1/C(=C\OC)C(=O)OC` [rhynchophylline] was run?
A: The IC50 was 66.3 µM.
